Laboratory results as given in patent US20180328927A1 (HUNAN SKYWORLD BIOTECHNOLOGIES CO., priority 2015, published 2018).
“Also recorded” adds a separate entry of the source. Read-outs that look alike come from different tables or passages of the source.

Tests used:
[1] = tested on: anti-SAM monoclonal antibodies; assay: Cross-reaction of anti-SAM antibody with MAT substrates ATP and L-Met, direct competitive ELISA; assay type: binding; conditions: for Cross-reaction (%): relative to SAM standard at 50% inhibition
Description: (A) Antigen-coating method: A PLL or BSA-conjugated SAM antigen is pre-coated on a solid-phase ELISA micro-titer plate that is then blocked with BSA solution. The antigen to be detected (SAM sample), then HRP-conjugated anti-SAM antibody are added and incubated at the same time. The antigen to be tested and the coating antigen compete for the enzyme-labeled antibody. After incubation and washing, the enzyme-labeled antibody bound to the coating antigen is retained, and the enzyme-labeled antibody that binds to the antigen to be detected (free antigen) is washed away. Finally, adding TMB substrate to the reaction wells. The final coloration result is inversely proportional to the amount of the antigen to be detected, that is, the higher the OD450 value, the lower the SAM concentration in the sample to be measured. In the course of the experiment, a series of SAM solutions with a known concentration were used as standards in the same ELISA micro-titer plate for the standard curve of the assay. Based on the standard curve, an equation showing how OD450 readings and values of the known standard concentration are related can be obtained. Put the sample OD450 into the equation to get the corresponding concentration value of the sample.
The ELISA plates were coated with PLL SAM antigen. […] The HRP-anti-SAM antibody was diluted at 1:25000 with HRP antibody diluent. Added 30 μl standards and cross-reacting substances ATP and Met per well, and 70 μl diluted HRP-anti-SAM antibody per well and incubated at 37° C. for 1 h. Washed the plate, added 100 μl TMB at 37° C. for 15 min, added 50 μl stop solution and read OD450.
A/A0; reaction rate (A0 is the OD450 reading at 0 nM, A represents any OD450 reading of wells that have different amount of free small molecule antigen competing.)

MAT-III/I in L02 cells = assay: Intracellular MAT activity in L02 cells after GSNO pretreatment and Met; assay type: cell-based, human
MAT-II in HepG2 cells = molecular target: T1, MAT-II in HepG2 cells (Homo sapiens, UniProt P31153); assay: Intracellular MAT activity in HepG2 cells after GSNO pretreatment and Met; assay type: cell-based
T1 construct: endogenous in cells; host or cells: HepG2

[2] = molecular target: methionine adenosyltransferase (MAT) (Escherichia coli, UniProt P0A817)
[3] = cross-reacting substance 120 nM
[4] = cross-reacting substance 1200 nM
[5] = cross-reacting substance 3960 nM
[6] = cross-reacting substance 12000 nM

Nc1ncnc2c1ncn2[C@@H]1O[C@H](COP(=O)(O)OP(=O)(O)OP(=O)(O)O)[C@@H](O)[C@H]1O [ATP, adenosine triphosphate]
A/A0 (reaction rate) [1, 3]: 1.051 | A/A0 (reaction rate) [1, 4]: 1.001 | A/A0 (reaction rate) [1, 5]: 1.095 | A/A0 (reaction rate) [1, 6]: 1.086 | Cross-reaction (%) [1]: <1%

N[C@@H](CCC(=O)N[C@@H](CSN=O)C(=O)NCC(=O)O)C(=O)O [GSNO, nitrosoglutathione]
effect of GSNO nitrosylation on MAT-III/I (MAT-III/I in L02 cells; 1 mM GSNO pretreatment, Met stimulation): inhibition of MAT-III or MAT-I after nitrosation of GSNO was obvious; also recorded: inhibitory effect of GSNO nitrosylation on MAT-III/I was obvious | effect of GSNO nitrosylation on MAT activity (MAT-III/I in L02 cells; in the presence of 2 mM Met): remained obvious | effect of GSNO nitrosylation on MAT-II (MAT-II in HepG2 cells; 1 mM GSNO pretreatment): minor effect on MAT-II; also recorded: no inhibitory effect on MAT-II

[Cl-].[K+] [KCl]
A/A0 ([2]; KCl 50 mM, 20 mM MgSO4, 100 mM Tris, ATP 5 mM, Met 4 mM, MAT 1 mg/ml): 0.1983 | A/A0 ([2]; KCl 100 mM): 0.1938 | A/A0 ([2]; KCl 150 mM): 0.1911 | A/A0 ([2]; KCl 200 mM): 0.1973 | A/A0 ([2]; KCl 250 mM): 0.2079 | A/A0 ([2]; KCl 300 mM): 0.2106 | A/A0 ([2]; KCl 400 mM): 0.1995

CSCC[C@H](N)C(=O)O [Met, methionine]
A/A0 (reaction rate) [1, 3]: 1.042 | A/A0 (reaction rate) [1, 4]: 1.046 | A/A0 (reaction rate) [1, 5]: 1.012 | A/A0 (reaction rate) [1, 6]: 1.095 | Cross-reaction (%) [1]: <1% | SAM (nM) synthesized by MAT (MAT-III/I in L02 cells; 0.5 mM Met 24 h, normalized to 2×10^7 cells, 0 mM Met control 274.4578162): 377.7 nM | effect on MAT-III/I activity (MAT-III/I in L02 cells; 500 μM Met, 24 hours): stimulated the activity of MAT-III or MAT-I; also recorded: stimulated MAT-III/I activity | effect on MAT-III/I activity (MAT-III/I in L02 cells; 2 mM Met): No stimulatory effects; also recorded: stimulation was not significant | SAM (nM) synthesized by MAT (MAT-III/I in L02 cells; 2 mM Met 24 h): 236.4 nM | SAM (nM) synthesized by MAT (MAT-II in HepG2 cells; 0.5 mM Met 24 h, normalized to 2×10^7 cells, 0 mM Met control 247.4761): 222.3993 nM | SAM (nM) synthesized by MAT (MAT-II in HepG2 cells; 2 mM Met 24 h): 174.3621 nM | effect on MAT-II activity (MAT-II in HepG2 cells; Met 0.5 and 2 mM): the higher the Met concentration, the lower the activity of MAT-II; also recorded: inhibits MAT-II activity

O=S(=O)([O-])[O-].[Mg+2] [MgSO4]
A/A0 ([2]; MgSO4 4 mM, 250 mM KCl, 100 mM Tris, ATP 5 mM, Met 4 mM, MAT 1 mg/ml): 0.2199 | A/A0 ([2]; MgSO4 10 mM): 0.2047 | A/A0 ([2]; MgSO4 30 mM): 0.1867 | A/A0 ([2]; MgSO4 50 mM): 0.1766 | A/A0 ([2]; MgSO4 70 mM): 0.1734 | A/A0 ([2]; MgSO4 100 mM): 0.1724 | decrease of A/A0 ([2]; MgSO4 from 4 mM to 100 mM): 0.475

NC(CO)(CO)CO [Tris, tris (hydroxymethyl) aminomethane]
A/A0 ([2]; Tris 20 mM, after optimal Mg2+ and K+ were determined): 0.4981 | A/A0 ([2]; Tris 50 mM): 0.2567 | A/A0 ([2]; Tris 100 mM): 0.2168 | A/A0 ([2]; Tris 200 mM): 0.2472
